Where two headings read alike, the source gives them in different places.
What was measured:
[1] = target: human CB2 receptor (Homo sapiens (Human), UniProt P34972); test: CB2 receptor binding assay ([3H]CP-55,940 displacement, HEK-293 membranes)
Method: The compounds were evaluated in CB1R and CB2R binding assays using membranes from HEK-293 cells transfected with cDNAs encoding the human recombinant CB1R (Bmax=[…] protein) and human recombinant CB2R (Bmax=[…] protein) (Perkin-Elmer). […] Compounds were tested following the procedure described by the cell membrane manufacturer. […] CB2R binding assays were carried out with two different buffers: incubation buffer (Tris-HCl, 50 mM; MgCl2, 5 mM; CaCl2 1 mM; BSA, 0.2% at pH 7.4) and washing buffer (Tris-HCl, 50 mM; NaCl 500 mM; BSA, 0.1% at pH 7.4). […] Assays were performed in duplicate and incubated for […] at 37° C. […] Data are analyzed and IC50 is calculated using GraphPad Prism 5 and the model “log(inhibitor) vs. response—Variable slope”. The binding affinity of the compounds is Determined by Using the Cheng and Prusoff Equation Ki=IC50/(1+[radioligand]/Kd).

[2] = target: human recombinant CB1R (Homo sapiens (Human), UniProt P21554); test: CB1 receptor binding assay ([3H]CP-55,940 displacement, HEK-293 membranes)
Method: The compounds were evaluated in CB1R and CB2R binding assays using membranes from HEK-293 cells transfected with cDNAs encoding the human recombinant CB1R (Bmax=[…] protein) and human recombinant CB2R (Bmax=[…] protein) (Perkin-Elmer). […]. Compounds were tested following the procedure described by the cell membrane manufacturer. […] CB2R binding assays were carried out with two different buffers: incubation buffer (Tris-HCl, 50 mM; MgCl2, 5 mM; CaCl2 1 mM; BSA, 0.2% at pH 7.4) and washing buffer (Tris-HCl, 50 mM; NaCl 500 mM; BSA, 0.1% at pH 7.4). […] Assays were performed in duplicate and incubated for […] at 37° C. After the incubation, the assay mixture is filtered through 96 GF/C filter plates (Perkin Elmer #6005174) using Perkin Elmer Filtermate Harvester, and then washed four times with ice-cold washing buffer. The filters are dried for 1 hour at 50° C. and [^3H] trapped on filter counted for radioactivity in Perkin Elmer Microscint 20 cocktail (#6013329) using Perkin Elmer MicroBeta2 Reader. […] Data are analyzed and IC50 is calculated using GraphPad Prism 5 and the model “log(inhibitor) vs. response—Variable slope”. The binding affinity of the compounds is Determined by Using the Cheng and Prusoff Equation Ki=IC50/(1+[radioligand]/Kd).

[3] = membranes of HEK-293 cells with human recombinant CB1R, [3H]CP-55,940, class symbols, read-out: CB1 IC50
[4] = membranes of HEK-293 cells with human recombinant CB2R, [3H]CP-55,940, class symbols, read-out: CB2 IC50

Chain of human CB2 receptor (P34972 whole entry): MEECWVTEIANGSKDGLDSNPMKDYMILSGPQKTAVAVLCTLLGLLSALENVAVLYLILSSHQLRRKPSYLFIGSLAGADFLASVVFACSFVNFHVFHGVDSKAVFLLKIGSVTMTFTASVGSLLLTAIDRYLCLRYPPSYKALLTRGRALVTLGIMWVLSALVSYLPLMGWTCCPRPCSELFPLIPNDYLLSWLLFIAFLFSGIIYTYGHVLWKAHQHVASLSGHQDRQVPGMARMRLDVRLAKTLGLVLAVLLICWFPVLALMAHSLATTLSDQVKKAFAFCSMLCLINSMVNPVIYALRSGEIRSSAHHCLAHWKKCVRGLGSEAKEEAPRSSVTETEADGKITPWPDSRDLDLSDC
Chain of human recombinant CB1R (P21554 whole entry): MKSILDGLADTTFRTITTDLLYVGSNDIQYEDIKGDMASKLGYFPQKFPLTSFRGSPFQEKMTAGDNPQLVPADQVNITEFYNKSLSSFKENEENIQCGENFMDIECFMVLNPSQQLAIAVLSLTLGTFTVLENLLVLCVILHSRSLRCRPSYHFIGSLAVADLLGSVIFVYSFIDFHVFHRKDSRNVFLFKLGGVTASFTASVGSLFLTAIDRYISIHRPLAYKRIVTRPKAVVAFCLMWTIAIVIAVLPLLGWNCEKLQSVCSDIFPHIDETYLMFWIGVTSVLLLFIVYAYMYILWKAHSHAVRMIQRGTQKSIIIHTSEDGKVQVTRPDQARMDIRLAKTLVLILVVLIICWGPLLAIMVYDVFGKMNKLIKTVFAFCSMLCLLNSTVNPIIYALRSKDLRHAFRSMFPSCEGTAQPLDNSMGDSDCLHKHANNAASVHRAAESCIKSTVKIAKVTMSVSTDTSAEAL

| Compound | IC50 [2, 3] [nM] | IC50 [1, 4] [nM] | other results |
| --- | --- | --- | --- |
| CC(NC(=O)c1cc2cc(-c3ccc(F)cc3)cnc2n(Cc2ncccn2)c1=O)c1ccc(F)cc1 (stereo not shown) [Compound 65, 6-(4-fluorophenyl)-N-(1-(4-fluorophenyl)ethyl)-2-oxo-1-(pyrimidin-2-ylmethyl)-1,2-dihydro-1,8-naphthyridine-3-carboxamide] | > 1000 | – | IC50 [1]: 100 to 999 nM |
| O=C(NC12CC(C1)C2)c1c(O)c2cc(-c3ccncc3)cnc2n(CCN2CCOCC2)c1=O [Compound 124, N-(bicyclo[1.1.1]pentan-1-yl)-4-hydroxy-1-(2-morpholinoethyl)-2-oxo-6-(pyridin-4-yl)-1,2-dihydro-1,8-naphthyridine-3-carboxamide] | > 1000 | > 1000 | – |
| C[C@H]1C[C@@H](NC(=O)c2c(O)c3cc(-c4ccc(F)cc4)cnc3n(CCN3CCOCC3)c2=O)C1 [Compound 113, 6-(4-fluorophenyl)-4-hydroxy-N-((1s, 3s)-3-methylcyclobutyl)-1-(2-morpholinoethyl)-2-oxo-1,2-dihydro-1,8-naphthyridine-3-carboxamide] | > 1000 | > 1000 | – |
| CC(NC(=O)c1cc2cc(-c3ccc(C#N)cn3)cnc2n(CC(C)(C)N2CCOCC2)c1=O)c1ccc(F)cc1 (stereo not shown) [Compound 56, 6-(5-cyanopyridin-2-yl)-N-(1-(4-fluorophenyl)ethyl)-1-(2-methyl-2-morpholinopropyl)-2-oxo-1,2-dihydro-1,8-naphthyridine-3-carboxamide] | > 1000 | < 100 | – |
| CC(C)c1cnc2c(c1)cc(C(=O)NC1(c3ccc(C#N)cc3)CC1)c(=O)n2Cc1ccc(F)cc1 [Compound 86, N-(1-(4-cyanophenyl)cyclopropyl)-1-(4-fluorobenzyl)-6-isopropyl-2-oxo-1,2-dihydro-1,8-naphthyridine-3-carboxamide] | > 1000 | < 100 | – |
| O=C(NC1CC2(CC2)C1)c1c(O)c2cc(-c3ccc(F)cc3)cnc2n(CCN2CCOCC2)c1=O [Compound 112, 6-(4-fluorophenyl)-4-hydroxy-1-(2-morpholinoethyl)-2-oxo-N-(spiro[2.3]hexan-5-yl)-1,2-dihydro-1,8-naphthyridine-3-carboxamide] | > 1000 | < 100 | – |
| C=C(C)c1cnc2c(c1)cc(C(=O)N[C@H](C)c1ccc(F)cc1)c(=O)n2Cc1ccc(F)cc1 [Compound 88, (R)-1-(4-fluorobenzyl)-N-(1-(4-fluorophenyl)ethyl)-2-oxo-6-(prop-1-en-2-yl)-1,2-dihydro-1,8-naphthyridine-3-carboxamide] | – | – | IC50 ([1]; membranes of HEK-293 cells with human recombinant CB2R, [3H]CP-55,940, read-out: CB2 IC50): 6.7 nM; IC50 ([2]; membranes of HEK-293 cells with human recombinant CB1R, [3H]CP-55,940, read-out: CB1 IC50): > 10000 nM |
| COc1ccc(-c2ccc3c(c2)c(O)c(C(=O)N[C@H]2CC[C@@H](C)CC2)c(=O)n3CCN2CCOCC2)cc1 [Compound 161, 4-hydroxy-6-(4-methoxyphenyl)-N-((1s,4S)-4-methylcyclohexyl)-1-(2-morpholinoethyl)-2-oxo-1,2-dihydroquinoline-3-carboxamide] | > 1000 | < 100 | – |
| O=C(NC1CC2(CCC2)C1)c1cc2cc(-c3ccc(OC4CC4)cc3)cnc2n(Cc2ccc(F)cc2)c1=O [Compound 67, 6-(4-cyclopropoxyphenyl)-1-(4-fluorobenzyl)-2-oxo-N-(spiro[3.3]heptan-2-yl)-1,2-dihydro-1,8-naphthyridine-3-carboxamide] | > 1000 | > 1000 | – |
| COc1ccc(-c2cnc3c(c2)c(C)c(C(=O)NC(C)c2ccc(F)cc2)c(=O)n3CCN2CCOCC2)cc1 (stereo not shown) [Compound 75, N-(1-(4-fluorophenyl)ethyl)-6-(4-methoxyphenyl)-4-methyl-1-(2-morpholinoethyl)-2-oxo-1,2-dihydro-1,8-naphthyridine-3-carboxamide] | > 1000 | > 1000 | – |
| O=C(NC1CC2(CCC2)C1)c1c(O)c2cccnc2n(Cc2ccc(F)cc2)c1=O [Compound 134, 1-(4-fluorobenzyl)-4-hydroxy-2-oxo-N-(spiro[3.3]heptan-2-yl)-1,2-dihydro-1,8-naphthyridine-3-carboxamide] | > 1000 | – | IC50 [1]: 100 to 999 nM |
| CC(NC(=O)c1c(O)c2cc(-c3ccc(C#N)cn3)cnc2n(Cc2ccc(F)cc2)c1=O)c1ccc(C#N)cc1 (stereo not shown) [Compound 24, N-(1-(4-cyanophenyl)ethyl)-6-(5-cyanopyridin-2-yl)-1-(4-fluorobenzyl)-4-hydroxy-2-oxo-1,2-dihydro-1,8-naphthyridine-3-carboxamide] | > 1000 | > 1000 | – |
| O=C(NC1CC2(CCC2)C1)c1cc2cc(-c3ncccn3)cnc2n(CCN2CCOCC2)c1=O [Compound 38, 1-(2-morpholinoethyl)-2-oxo-6-(pyrimidin-2-yl)-N-(spiro[3.3]heptan-2-yl)-1,2-dihydro-1,8-naphthyridine-3-carboxamide] | – | < 100 | IC50 [2]: 100 to 999 nM |
| O=C(Nc1ccccn1)c1cc2cc(Br)cnc2n(Cc2ccc(F)cc2)c1=O [Compound 70, 6-bromo-1-(4-fluorobenzyl)-2-oxo-N-(pyridin-2-yl)-1,2-dihydro-1,8-naphthyridine-3-carboxamide] | > 1000 | < 100 | – |
| COc1c(C(=O)NC23CC(C2)C3)c(=O)n(CCN2CCOCC2)c2ncc(-c3ccc(F)cc3)cc12 [Compound 173, N-(bicyclo[1.1.1]pentan-1-yl)-6-(4-fluorophenyl)-4-methoxy-1-(2-morpholinoethyl)-2-oxo-1,2-dihydro-1,8-naphthyridine-3-carboxamide] | – | > 1000 | – |
| O=C(NC1CC2(CCC2)C1)c1c(O)c2cc(-c3ccccc3)cnc2n(CCN2CCOCC2)c1=O [Compound 14, 4-hydroxy-1-(2-morpholinoethyl)-2-oxo-6-phenyl-N-(spiro[3.3]heptan-2-yl)-1,2-dihydro-1,8-naphthyridine-3-carboxamide] | – | < 100 | – |
| C[C@H](NC(=O)c1cc2cc(-c3ccc(OC(F)F)cn3)cnc2n(CCN2CCOCC2)c1=O)c1ccc(F)cc1 [Compound 49, (S)-6-(5-(difluoromethoxy)pyridin-2-yl)-N-(1-(4-fluorophenyl)ethyl)-1-(2-morpholinoethyl)-2-oxo-1,2-dihydro-1,8-naphthyridine-3-carboxamide] | – | 100 to 999 | – |
| O=C(NC12CC(C1)C2)c1c(O)c2cc(-c3ccc(F)cc3)cnc2n(CCN2CC3CC(C2)O3)c1=O [Compound 165, 1-(2-(6-oxa-3-azabicyclo[3.1.1]heptan-3-yl)ethyl)-N-(bicyclo[1.1.1]pentan-1-yl)-6-(4-fluorophenyl)-4-hydroxy-2-oxo-1,2-dihydro-1,8-naphthyridine-3-carboxamide] | – | > 1000 | – |
| O=C(NC1CC2(CCC2)C1)c1cc2cc(-c3ccc(OC(F)F)cn3)cnc2n(Cc2ccc(F)cc2)c1=O [Compound 43, 6-(5-(difluoromethoxy)pyridin-2-yl)-1-(4-fluorobenzyl)-2-oxo-N-(spiro[3.3]heptan-2-yl)-1,2-dihydro-1,8-naphthyridine-3-carboxamide] | – | – | IC50 [1]: 100 to 999 nM |
| COc1ccc(-c2cnc3c(c2)c(OC(C)C)c(C(=O)NC24CC(C2)C4)c(=O)n3CCN2CCOCC2)cc1 [Compound 180, N-(bicyclo[1.1.1]pentan-1-yl)-4-isopropoxy-6-(4-methoxyphenyl)-1-(2-morpholinoethyl)-2-oxo-1,2-dihydro-1,8-naphthyridine-3-carboxamide] | – | > 1000 | – |
| O=C(NC1CC2(CCC2)C1)c1c(O)c2cc(Br)cnc2n(CCN2CCOCC2)c1=O [Compound 4, 6-bromo-4-hydroxy-1-(2-morpholinoethyl)-2-oxo-N-(spiro[3.3]heptan-2-yl)-1,2-dihydro-1,8-naphthyridine-3-carboxamide] | – | – | IC50 [1]: 100 to 999 nM |
| O=C(NC12CC(C1)C2)c1c(O)c2cc(-c3ccc(F)cc3)cnc2n(CCN2C3COCC2C3)c1=O [Compound 166, 1-(2-(3-oxa-6-azabicyclo[3.1.1]heptan-6-yl)ethyl)-N-(bicyclo[1.1.1]pentan-1-yl)-6-(4-fluorophenyl)-4-hydroxy-2-oxo-1,2-dihydro-1,8-naphthyridine-3-carboxamide] | – | > 1000 | – |
| COc1ccc(-c2cnc3c(c2)c(OC)c(C(=O)NC24CC(C2)C4)c(=O)n3CCN2CCOCC2)cc1 [Compound 177, N-(bicyclo[1.1.1]pentan-1-yl)-4-methoxy-6-(4-methoxyphenyl)-1-(2-morpholinoethyl)-2-oxo-1,2-dihydro-1,8-naphthyridine-3-carboxamide] | – | > 1000 | – |
